PubChem BioAssay AID1552 (Sanford-Burnham Center for Chemical Genomics, 2009)
Activity calls are given as the source filed them. No rule for the calls is given here.

Each molecule was assayed against Ubiquitin-conjugating enzyme E2 N (Homo sapiens) (UniProt P61088) (assay: UBE2N binders by NMR, biophysical, purified protein (AID 1552)). Settings: NMR binding to purified UBE2N.
Ubiquitin-conjugating enzyme E2 N (Homo sapiens), sequence (P61088 whole entry, looked up): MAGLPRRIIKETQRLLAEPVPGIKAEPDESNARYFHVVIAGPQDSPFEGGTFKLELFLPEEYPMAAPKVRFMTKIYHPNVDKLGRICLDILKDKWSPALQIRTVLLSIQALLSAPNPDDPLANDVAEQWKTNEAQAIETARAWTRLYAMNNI

Row | SMILES | Kd
1 | CC1O[C@@H](Oc2c(-c3ccc(O)c(O)c3)oc3cc(O)cc(O)c3c2=O)[C@H](O)[C@H](O)[C@H]1O (stereo not given in full) | > 4 mM (inactive)
2 | CSc1ccn(CCC(=O)O)c(=O)n1 | > 4 mM (inactive)
3 | OCc1c[nH]c2ccccc12 | > 4 mM (inactive)
4 | CC(=O)Nc1ccncc1NC(C)=O | > 4 mM (inactive)
5 | CC1(C)CC2(CCO1)NCCN1C(=O)CSC12 (stereo not given) | > 4 mM (inactive)
6 | O=C(O)C1CCCN1Cc1c[nH]c2ccccc12 (stereo not given) | > 4 mM (inactive)
7 | Cc1nnsc1C(=O)Nc1ccccn1 | > 4 mM (inactive)
8 | Cc1ccc(C(=O)n2cnnc2N)cc1C | > 4 mM (inactive)
9 | Cc1[nH]c2ccccc2c1CN(C)C | > 4 mM (inactive)
10 | NC(=O)c1ccc(-c2csnn2)cc1 | > 4 mM (inactive)
11 | CC(C)=CCC/C(C)=C/CC/C(C)=C/CC/C(C)=C/CC/C(C)=C/CC/C(C)=C/CC/C(C)=C/CC/C(C)=C/CC/C(C)=C/CO | > 4 mM (inactive)
12 | COC(=O)CCSCC(=O)Nc1nccs1 | > 4 mM (inactive)
13 | O=C(Cc1c(F)cccc1Cl)Nc1cccnc1 | > 4 mM (inactive)
14 | CC(=O)Nc1ccc(Nc2nnc(C)c(=O)[nH]2)cc1 | > 4 mM (inactive)
15 | O=C(CSc1ccnc(=O)[nH]1)NCc1ccco1 | > 4 mM (inactive)
16 | O=S(=O)(N1CCOCC1)n1nnc2ccccc21 | > 4 mM (inactive)
17 | CSCCNC(C)=O | > 4 mM (inactive)
18 | CC(C)(CO)NC(=O)c1ccccc1F | > 4 mM (inactive)
19 | Cc1nc2nc(Cc3ccccc3)[nH]n2c(=O)c1Cl | > 4 mM (inactive)
20 | CC(C)C1COc2cc3oc(=O)ccc3cc2O1 (stereo not given) | > 4 mM (inactive)
21 | CC(=O)Nc1ccc(C(=O)NC2CCSC2=O)cc1 (stereo not given) | > 4 mM (inactive)
22 | Cn1c(=O)c2c(ncn2CCN)n(C)c1=O | > 4 mM (inactive)
23 | O=S1(=O)CCC(N2CCCCC2)C1 (stereo not given) | > 4 mM (inactive)
24 | OCc1ccc(-n2cncn2)cc1 | > 4 mM (inactive)

Row | SMILES | Kd
25 | Cc1occc1C(=O)NCc1ccccc1F | > 4 mM (inactive)
26 | OCCNc1nc2ccc(Cl)cc2[nH]1 | > 4 mM (inactive)
27 | CN(C)c1ccc(C2CC(=O)CC(=O)C2)cc1 | > 4 mM (inactive)
28 | Cn1cc(Cl)c(C(=O)Nc2ccc(F)cc2F)n1 | > 4 mM (inactive)
29 | OCC1CCCCCN1 (stereo not given) | > 4 mM (inactive)
30 | COc1cccc(N2CCN(C(=O)c3cccnc3)CC2)c1 | > 4 mM (inactive)
31 | CC1(c2ccncc2)NC(=O)NC1=O (stereo not given) | > 4 mM (inactive)
32 | CCOc1ccc2nc(NS(C)(=O)=O)sc2c1 | > 4 mM (inactive)
33 | COc1ccc(-c2cc(=O)c3c(OC(C)=O)cc(OC(C)=O)cc3o2)cc1 | > 4 mM (inactive)
34 | COCC(=O)Nc1ccc(F)cc1F | > 4 mM (inactive)
35 | COCC(=O)NC1CC(C)(C)NC(C)(C)C1 | > 4 mM (inactive)
36 | Nc1nc(CSc2ncn(-c3ccccc3)n2)cs1 | > 4 mM (inactive)
37 | CC12CCC3C(CC3(C)C)C(C)(CCC1=O)O2 (stereo not given) | > 4 mM (inactive)
38 | OCc1ccccc1O[C@@H]1O[C@H](CO)[C@@H](O)[C@H](O)[C@H]1O | > 4 mM (inactive)
39 | C=C(C)C1CC=C(CO)CC1 (stereo not given) | > 4 mM (inactive)
40 | C=CCn1c(-c2ccc(O)cc2)n[nH]c1=S | > 4 mM (inactive)
41 | S=C(Nc1ccccc1)Nc1nncs1 | > 4 mM (inactive)
42 | COc1cnn(Cc2ccccc2)c(=O)c1Cl | > 4 mM (inactive)
43 | Cc1nnc2n(c1=O)N=C(c1ccccc1)CS2 | > 4 mM (inactive)
44 | CC1CCN(C(=O)c2cc3ccccc3o2)CC1 | > 4 mM (inactive)
45 | c1ccc(NCc2nc(-c3ccccc3)no2)cc1 | > 4 mM (inactive)
46 | CS(=O)(=O)Nc1nnc(Cc2ccccc2)s1 | > 4 mM (inactive)
47 | O=C(NCc1ccccn1)c1ccc(Cl)cc1Cl | > 4 mM (inactive)
48 | C[C@H]1O[C@@H](O[C@H]2[C@@H](O)C[C@H](O[C@H]3[C@@H](O)C[C@H](O[C@H]4CC[C@]5(C)C6C[C@@H](O)[C@]7(C)[C@@H](C8=CC(=O)OC8)CC[C@]7(O)C6CC[C@@H]5C4)O[C@@H]3C)O[C@@H]2C)C[C@H](O)[C@@H]1O (stereo not given in full) | > 4 mM (inactive)

Row | SMILES | Kd
49 | COc1ccc(-c2cn[nH]c2N)c(OC)c1 | > 4 mM (inactive)
50 | CN(C)S(=O)(=O)Nc1ccc(Br)cc1F | > 4 mM (inactive)
51 | Cc1ccc(CN2C3=NC(=O)CN3c3ccccc32)cc1 | > 4 mM (inactive)
52 | CCc1c(C(=O)Nc2ccncc2)csc1C | > 4 mM (inactive)
53 | Nc1nc(-c2ccccc2)ns1 | > 4 mM (inactive)
54 | O=C(Nc1cccc(Cl)c1)c1ccncc1 | > 4 mM (inactive)
55 | CCc1ccc(/C=N/n2cnnc2)cc1 | > 4 mM (inactive)
56 | CC(=O)Oc1ccc(O)cc1 | > 4 mM (inactive)
57 | Cc1noc(C)c1C(=O)N1CCc2ccccc2C1 | > 4 mM (inactive)
58 | COC(=O)N(c1ccccc1)P1(=S)OCCO1 | > 4 mM (inactive)
59 | Cc1nn(C)c(C)c1C(=O)O | > 4 mM (inactive)
60 | CC(=O)O[C@@H]1c2c(ccc3ccc(=O)oc23)OC(C)(C)[C@@H]1OC(=O)CC(C)C | > 4 mM (inactive)
61 | COC(=O)c1cc(-c2c(C)nn(-c3ccccc3)c2C)n[nH]1 | > 4 mM (inactive)
62 | COC1C=CC23c4cc5c(cc4CN(CC2O)[C@@H]3C1)OCO5 (stereo not given in full) | > 4 mM (inactive)
63 | O=c1cc(-c2ccc(O)cc2)oc2cc(O)cc(O)c12 | > 4 mM (inactive)
64 | O=c1[nH]c(O)c(C=NC2CC2)c(=O)[nH]1 | > 4 mM (inactive)
65 | O=C(NCc1cccc(Cl)c1)c1ccco1 | > 4 mM (inactive)
66 | COc1ccc(C(=O)NC2=NCCS2)cc1OC | > 4 mM (inactive)
67 | Cn1c(=O)[nH]c(=O)c2nsnc21 | > 4 mM (inactive)
68 | O=C1C2C3C=CC(C3)C2C(=O)N1CCO (stereo not given) | > 4 mM (inactive)
69 | O=C1c2ccccc2C(=O)c2c1ccc(O)c2O | > 4 mM (inactive)
70 | Cc1cccc(N2CCN(C(=O)c3ccncc3)CC2)c1C | > 4 mM (inactive)
71 | NC(=O)CSc1ncnc2ccccc12 | > 4 mM (inactive)
72 | C=CCCCCCCCCCCCC(O)CC(O)CO (stereo not given) (tested in a mixture with another compound) | > 4 mM (inactive)

Row | SMILES | Kd
73 | C=CCCCCCCCCCCCC(O)CC(O)COC(C)=O (stereo not given) | > 4 mM (inactive)
74 | S=c1oc(-c2ccncc2)nn1CCc1ccncc1 | > 4 mM (inactive)
75 | CC1(C)SCC(C(=O)O)N1C=O (stereo not given) | > 4 mM (inactive)
76 | CCn1c(=O)cc(N2CCC3(CC2)OCCO3)[nH]c1=O | > 4 mM (inactive)
77 | CC(CC(=O)NN)C1(O)CCCCC1 (stereo not given) | > 4 mM (inactive)
78 | CCOC(=O)CN1C(=O)c2ccccc2C1=O | > 4 mM (inactive)
79 | CC1(C)C(=O)[C@@H]2C[C@@]3(O)C4=CC(=O)O[C@@H](c5ccoc5)[C@]4(C)CCC3C(C)(C2=O)[C@H]1CC(=O)O (stereo not given in full) | > 4 mM (inactive)
80 | Cc1cc2ncc(C(=O)Nc3ccccc3)c(C)n2n1 | > 4 mM (inactive)
81 | c1ccc2[nH]c(CCn3cncn3)nc2c1 | > 4 mM (inactive)
82 | COC(=O)C[C@H]1C(C)(C)C(=O)[C@@H]2CC3=C(CC[C@]4(C)C3=CC(=O)O[C@H]4c3ccoc3)C1(C)C2=O | > 4 mM (inactive)
83 | O=C(c1cccnc1Cl)N1CCOCC1 | > 4 mM (inactive)
84 | COc1cc(OC)c(-c2c(OC)cc(OC)cc2OC)c(OC)c1 | > 4 mM (inactive)
85 | NC(=O)Cn1cnc2ccccc21 | > 4 mM (inactive)
86 | Cc1occc1C(=O)Nc1ccc2c(c1)CCC2 | > 4 mM (inactive)
87 | CC(=O)OC1CCC2(C)C(=CC=C3C2CCC2(C)C3CCC2C(C)/C=C/C(C)C(C)C)C1(C)C (stereo not given) | > 4 mM (inactive)
88 | NCCNC(=S)Nc1ccccc1 | > 4 mM (inactive)
89 | O=C(Nc1nnc(-c2cccnc2)o1)c1ccccc1F | > 4 mM (inactive)
90 | Cc1cc(=O)oc2cc(O)c(O)cc12 | > 4 mM (inactive)
91 | CCN1CCN(c2ncnc3c2nnn3C)CC1 | > 4 mM (inactive)
92 | NC(=O)N1CCc2ccccc21 | > 4 mM (inactive)
93 | CCNC(CC(=O)Nc1cccc([N+](=O)[O-])c1)C(=O)O (stereo not given) | > 4 mM (inactive)
94 | O=c1c(O)c(-c2ccccc2)oc2cc(O)ccc12 | > 4 mM (inactive)
95 | Cc1nc2ccc(C(=O)O)cc2nc1C | > 4 mM (inactive)
96 | COc1cc(N)ncn1 | > 4 mM (inactive)

Row | SMILES | Kd
97 | COC(=O)c1cc(-c2c[nH]c3ccccc23)n[nH]1 | > 4 mM (inactive)
98 | CCOc1cc(S(=O)(=O)n2nc(C)cc2C)ccc1F | > 4 mM (inactive)
99 | CN(C)c1nc(N2CCOCC2)c2cnn(C)c2n1 | > 4 mM (inactive)
100 | COc1ccc(-c2coc3cc(OC(C)=O)cc(OC(C)=O)c3c2=O)cc1 | > 4 mM (inactive)
101 | Nc1ccc(S(=O)(=O)N2CCCCC2)cc1 | > 4 mM (inactive)
102 | CC(=O)N1CCN(C2CCSC2)CC1 (stereo not given) | > 4 mM (inactive)
103 | CC1SC(=NC(=O)c2ccco2)NC1=O (stereo not given) | > 4 mM (inactive)
104 | C=CCSCC=C | > 4 mM (inactive)
105 | OC(c1ccccc1)c1ccccn1 (stereo not given) | > 4 mM (inactive)
106 | CSc1nc2nccc(N)n2n1 | > 4 mM (inactive)
107 | Fc1ccc(-c2n[nH]c(=S)n2CC2CCCO2)cc1 (stereo not given) | > 4 mM (inactive)
108 | Nc1ccc2nsnc2c1 | > 4 mM (inactive)
109 | NC(=O)C1CCN(c2ccc(Cl)nn2)CC1 | > 4 mM (inactive)
110 | NS(=O)(=O)c1ccc(N2CCCC2=O)cc1 | > 4 mM (inactive)
111 | Nc1ccccc1C(=O)N1CCNC(=O)C1 | > 4 mM (inactive)
112 | O=C(O)CSc1nnc(-c2cccs2)o1 | > 4 mM (inactive)
113 | O=C1C2=C(SCCS2)C(=O)N1CCCO | > 4 mM (inactive)
114 | O=c1[nH]cnc2nn(-c3ccccc3)nc12 | > 4 mM (inactive)
115 | CC(C)[C@@H]1CC[C@@H](C)C[C@H]1OC(=O)c1ccccc1 | > 4 mM (inactive)
116 | CNC(=S)Nc1ccc(OC)cc1C | > 4 mM (inactive)
117 | CSc1nnc(-c2ccccc2NC(C)=O)o1 | > 4 mM (inactive)
118 | O=C(Nc1ccon1)c1cc2c(s1)CCCC2 | > 4 mM (inactive)
119 | O=C(O)C1CSC(c2ccccc2)N1 (stereo not given) | > 4 mM (inactive)
120 | Cc1cc(C)n(-c2ccc(N)cc2)n1 | > 4 mM (inactive)
